Assay [1] has as its target full length human FXR protein (Homo sapiens (Human), UniProt Q96RI1). The experiment in a line: FXR cellular assay (FXR-SRCP β-gal enzyme fragment complementation in CHO-K1 cells, chemiluminescence). The format is cell-based. The settings on record: CHO-K1 cells with SRCP-EA and ProLink-labeled FXR, 0-10 micromolar compound, 37° C. for 6h, read-out: EC50 FXR-cell Luminescence/. Summed up: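 CHO-K1 cells stably expressing ProLink-tagged full-length FXR and SRCP-EA treated with compound (0-10 micromolar, 1% DMSO) for 6 h at 37 °C. Ligand-driven FXR-coactivator binding reconstitutes β-gal; chemiluminescence read after 1 h detection reagent at room temperature.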

Assay [2] deals with ligand binding domain (LBD) of recombinant human FXR (Homo sapiens (Human), UniProt Q96RI1). The experiment in a line: FXR cell free coactivator (SRC-1) recruitment assay, TR-FRET. The settings on record: FXR LBD (amino acids 244-476) with labeled SRC-1 domain, 25° C. for 60 minutes, activity relative to CDCA maximum; read-out: EC50 FXR- Biochemical TR-FRET/μM. Summed up:
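Purified SF9-expressed FXR LBD (aa 244-476) was incubated with compounds (0-10 micromolar) and labeled SRC-1 interaction domain in TR-FRET coregulator buffer G, 60 min at 25° C, 1.2% DMSO. Activity at each concentration was taken as percent of maximal CDCA response to build dose-response curves.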
(In general: In TR-FRET formats the signal depends on donor and acceptor labels being close together.)

Consider 3 compounds from US20240116912A1, “COMPOUNDS AND METHODS FOR MODULATING FXR” (Terns Pharmaceuticals, Inc., priority 2020, published 2024).

Sequence of full length human FXR protein (Q96RI1 whole entry, the tested form may be a part): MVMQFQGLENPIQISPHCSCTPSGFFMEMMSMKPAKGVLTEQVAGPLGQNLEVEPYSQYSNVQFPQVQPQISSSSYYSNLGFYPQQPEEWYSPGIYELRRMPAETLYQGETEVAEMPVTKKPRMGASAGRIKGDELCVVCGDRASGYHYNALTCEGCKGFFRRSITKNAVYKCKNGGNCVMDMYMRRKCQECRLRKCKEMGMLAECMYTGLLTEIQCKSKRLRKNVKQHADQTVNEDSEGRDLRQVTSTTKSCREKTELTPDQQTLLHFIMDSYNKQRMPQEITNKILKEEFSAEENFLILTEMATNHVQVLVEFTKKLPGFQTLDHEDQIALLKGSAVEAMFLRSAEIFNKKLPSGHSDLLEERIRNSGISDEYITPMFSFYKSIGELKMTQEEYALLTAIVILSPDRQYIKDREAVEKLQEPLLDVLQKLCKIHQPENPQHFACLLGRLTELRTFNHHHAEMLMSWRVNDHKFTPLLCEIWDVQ
Sequence of ligand binding domain (LBD) of recombinant human FXR (Q96RI1 254-486): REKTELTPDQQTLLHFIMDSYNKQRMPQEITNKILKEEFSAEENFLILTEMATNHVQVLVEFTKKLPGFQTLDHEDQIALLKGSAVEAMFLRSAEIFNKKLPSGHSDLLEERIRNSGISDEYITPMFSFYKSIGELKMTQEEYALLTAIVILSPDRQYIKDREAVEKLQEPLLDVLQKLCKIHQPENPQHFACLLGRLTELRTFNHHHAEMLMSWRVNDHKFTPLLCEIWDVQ
Sequence of ligand binding domain (LBD) of recombinant human FXR (Q15788 whole entry partner, the tested form may be a part): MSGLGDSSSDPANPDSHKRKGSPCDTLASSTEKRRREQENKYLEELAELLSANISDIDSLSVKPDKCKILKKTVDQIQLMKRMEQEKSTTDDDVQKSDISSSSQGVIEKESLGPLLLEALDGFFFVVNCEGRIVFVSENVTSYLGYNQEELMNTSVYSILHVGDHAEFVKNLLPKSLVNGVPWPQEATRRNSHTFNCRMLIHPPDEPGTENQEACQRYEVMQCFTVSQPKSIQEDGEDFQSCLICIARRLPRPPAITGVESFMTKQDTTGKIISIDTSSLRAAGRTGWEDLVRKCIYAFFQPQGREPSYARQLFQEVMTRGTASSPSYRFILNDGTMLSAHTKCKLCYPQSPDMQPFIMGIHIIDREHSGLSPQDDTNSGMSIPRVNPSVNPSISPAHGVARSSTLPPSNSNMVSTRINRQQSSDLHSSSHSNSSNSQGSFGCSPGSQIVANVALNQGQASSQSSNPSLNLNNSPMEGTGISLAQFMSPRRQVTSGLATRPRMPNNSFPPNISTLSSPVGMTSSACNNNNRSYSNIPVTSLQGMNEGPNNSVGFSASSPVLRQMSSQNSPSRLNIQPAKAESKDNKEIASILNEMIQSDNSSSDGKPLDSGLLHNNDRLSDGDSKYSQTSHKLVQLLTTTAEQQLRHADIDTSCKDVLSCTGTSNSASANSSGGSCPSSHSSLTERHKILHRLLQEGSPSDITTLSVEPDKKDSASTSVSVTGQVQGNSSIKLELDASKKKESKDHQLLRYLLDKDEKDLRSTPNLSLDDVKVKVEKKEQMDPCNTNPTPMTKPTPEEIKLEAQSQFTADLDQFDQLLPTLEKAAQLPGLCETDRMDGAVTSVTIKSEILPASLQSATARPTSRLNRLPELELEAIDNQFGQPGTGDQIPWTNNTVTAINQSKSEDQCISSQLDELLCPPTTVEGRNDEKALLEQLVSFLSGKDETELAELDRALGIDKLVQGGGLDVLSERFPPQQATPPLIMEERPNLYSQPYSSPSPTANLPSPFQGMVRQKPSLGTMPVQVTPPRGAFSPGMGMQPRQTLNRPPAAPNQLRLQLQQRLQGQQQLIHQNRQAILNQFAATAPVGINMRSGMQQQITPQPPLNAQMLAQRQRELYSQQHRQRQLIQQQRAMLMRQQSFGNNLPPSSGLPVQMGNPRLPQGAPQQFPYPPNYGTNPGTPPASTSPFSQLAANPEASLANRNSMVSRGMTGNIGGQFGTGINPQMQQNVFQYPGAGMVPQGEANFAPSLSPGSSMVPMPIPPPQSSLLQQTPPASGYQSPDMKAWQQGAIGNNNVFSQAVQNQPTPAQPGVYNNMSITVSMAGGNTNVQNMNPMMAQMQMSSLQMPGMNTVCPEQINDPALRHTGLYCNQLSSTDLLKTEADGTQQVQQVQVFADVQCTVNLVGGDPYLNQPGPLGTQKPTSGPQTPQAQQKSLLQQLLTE

As for `O=c1cc(-c2ccc(N3CCC(OCc4c(-c5ccccc5OC(F)(F)F)noc4C4CC4)CC3)nc2)o[nH]1` [Example 60, 5-(6-(4-((5-cyclopropyl-3-(2-(trifluoromethoxy)phenyl)isoxazol-4-yl)methoxy)piperidin-1-yl)pyridin-3-yl)isoxazol-3(2H)-one], the EC50 was 779 nM in assay [1] and 0.104 µM in assay [2].

On to `O=c1[nH]nc(-c2ccc(N3[C@@H]4CC[C@H]3C[C@@H](OCc3c(-c5ccccc5OC(F)(F)F)noc3C3CC3)C4)nc2)o1` [Example 68, 5-(6-((1R,3r,5S)-3-((5-cyclopropyl-3-(2-(trifluoromethoxy)phenyl)isoxazol-4-yl)methoxy)-8-azabicyclo[3.2.1]octan-8-yl)pyridin-3-yl)-1,3,4-oxadiazol-2(3H)-one], for which the EC50 in assay [1] came to 168 nM; in assay [2] it was 0.0264 µM.

With `O=c1[nH]nc(-c2ccc(N3CCC(OCc4c(-c5c(Cl)cccc5Cl)noc4C4CC4)CC3)nc2)c(=O)[nH]1` [Example 43, 6-(6-(4-((5-cyclopropyl-3-(2,6-dichlorophenyl)isoxazol-4-yl)methoxy)piperidin-1-yl)pyridin-3-yl)-1,2,4-triazine-3,5(2H,4H)-dione], the EC50 in assay [1] was 248 nM; in assay [2], 0.0112 µM.
